According to paper PMC10518257 (Nature Cancer, 2023):
“And” between values parts separate entries of the source, which are not always exact repeats. Equal entries are not always repeated. Where two headings read alike, the source gives them in different places.

Experiments:
[1] = Pharmacokinetic analysis of vepafestinib in rats (microdialysis PFC, CSF, plasma); assay type: in vivo, male Han Wistar rats
[2] = tested on: phospho-RET and phospho-ERK in Ba/F3 KIF5B–RET^WT tumors; assay: Western blotting of tumors after a single dose (target engagement); assay type: in vivo, mice; conditions: single dose 50 mg per kg
in vivo = conditions: male, BALB/c, mouse, in vivo, po, 50 mg/kg
[3] = target: T1, panel of 255 (vepafestinib) or 256 (all other inhibitors) recombinant kinases (Homo sapiens, UniProt Q9NQU5); assay: Kinase selectivity profiling at a single concentration (Carna Biosciences); assay type: biochemical; conditions: 23 nM
T1 construct: purchased Carna Biosciences

[4] = target: T2, panel of 255 (vepafestinib) or 256 (all other inhibitors) recombinant kinases (Homo sapiens, UniProt Q9P286); assay: as above; assay type: biochemical; conditions: 23 nM
T2 construct: purchased Carna Biosciences
T2 sequence (Q9P286 whole entry): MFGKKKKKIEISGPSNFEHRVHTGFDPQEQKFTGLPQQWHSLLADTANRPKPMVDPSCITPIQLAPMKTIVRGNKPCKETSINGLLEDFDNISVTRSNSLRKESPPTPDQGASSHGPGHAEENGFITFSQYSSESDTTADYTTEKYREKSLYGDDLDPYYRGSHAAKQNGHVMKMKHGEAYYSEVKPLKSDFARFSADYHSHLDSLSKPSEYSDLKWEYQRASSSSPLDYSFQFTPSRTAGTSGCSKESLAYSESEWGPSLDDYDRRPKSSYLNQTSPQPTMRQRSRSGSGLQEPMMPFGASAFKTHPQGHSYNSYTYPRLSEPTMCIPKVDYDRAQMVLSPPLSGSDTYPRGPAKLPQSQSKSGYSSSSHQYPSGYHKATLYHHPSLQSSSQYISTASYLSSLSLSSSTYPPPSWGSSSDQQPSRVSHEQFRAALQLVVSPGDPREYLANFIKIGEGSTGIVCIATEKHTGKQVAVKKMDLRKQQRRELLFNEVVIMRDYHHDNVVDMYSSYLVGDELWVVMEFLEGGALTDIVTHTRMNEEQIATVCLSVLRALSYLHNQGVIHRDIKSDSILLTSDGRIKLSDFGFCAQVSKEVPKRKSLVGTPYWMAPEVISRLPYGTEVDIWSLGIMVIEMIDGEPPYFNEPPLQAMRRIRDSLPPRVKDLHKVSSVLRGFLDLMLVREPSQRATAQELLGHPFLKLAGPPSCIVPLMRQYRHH

T1 sequence (Q9NQU5 whole entry): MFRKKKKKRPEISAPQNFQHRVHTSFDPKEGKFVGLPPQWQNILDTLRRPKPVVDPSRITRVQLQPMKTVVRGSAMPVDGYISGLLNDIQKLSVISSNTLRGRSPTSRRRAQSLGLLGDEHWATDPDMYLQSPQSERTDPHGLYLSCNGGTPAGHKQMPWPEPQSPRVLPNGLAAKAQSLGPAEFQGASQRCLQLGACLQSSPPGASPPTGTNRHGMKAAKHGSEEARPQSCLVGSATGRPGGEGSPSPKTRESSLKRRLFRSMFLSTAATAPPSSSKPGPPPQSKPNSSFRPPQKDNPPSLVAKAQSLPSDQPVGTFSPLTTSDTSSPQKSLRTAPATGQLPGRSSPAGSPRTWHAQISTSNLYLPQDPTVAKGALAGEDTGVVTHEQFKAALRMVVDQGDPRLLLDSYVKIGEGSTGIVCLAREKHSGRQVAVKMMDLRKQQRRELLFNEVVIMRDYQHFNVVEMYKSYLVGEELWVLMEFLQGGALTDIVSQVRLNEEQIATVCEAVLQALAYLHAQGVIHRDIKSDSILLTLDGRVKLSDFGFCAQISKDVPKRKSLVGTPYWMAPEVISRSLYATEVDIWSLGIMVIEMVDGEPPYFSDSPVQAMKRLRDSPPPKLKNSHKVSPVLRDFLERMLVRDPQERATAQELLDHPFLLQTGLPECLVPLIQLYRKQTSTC

Molecule COCc1ccc(NC(=O)c2c(C#CCN3CCOCC3)n(C3(C)CC3)c3ncnc(N)c23)cc1 [Vepafestinib, 4-amino-N-[4-(methoxymethyl)phenyl]-7-(1-methylcyclopropyl)-6-[3-(morpholin-4-yl)prop-1-yn-1-yl]-7H-pyrrolo[2,3-d]pyrimidine-5-carboxamide] has a concentration at 240 min ([1]; male, Han Wistar, rat, cerebrospinal fluid, oral, 3 mg/kg, 240 min, individual rats, read-out: Concentration in Rats, Cerebrospinal fluid) of 28.8 nM, a concentration at 480 min ([1]; male, Han Wistar, rat, cerebrospinal fluid, oral, 3 mg/kg, 480 min, individual rats, read-out: Concentration in Rats, Cerebrospinal fluid) of 8.78 nM and a concentration at 30 min ([1]; male, Han Wistar, rat, cerebrospinal fluid, oral, 10 mg/kg, 30 min, individual rats, read-out: Concentration in Rats, Cerebrospinal fluid) of 961 nM. The concentration at 120 min ([1]; male, Han Wistar, rat, cerebrospinal fluid, oral, 10 mg/kg, 120 min, individual rats, read-out: Concentration in Rats, Cerebrospinal fluid) was 585 nM, the concentration at 480 min ([1]; male, Han Wistar, rat, cerebrospinal fluid, oral, 50 mg/kg, rats, 50 mg/kg, 480 min, individual animals, read-out: Concentration in Cerebrospinal fluid) was 430 nM and the concentration at 480 min ([1]; male, Han Wistar, rat, cerebrospinal fluid, oral, 50 mg/kg, 480 min, individual rats, read-out: Concentration in Rats, Cerebrospinal fluid) was 486 nM. The concentration at 120 min ([1]; male, Han Wistar, rat, plasma (total), oral, 3 mg/kg, 120 min, individual rats, read-out: Concentration in Rats, Plasma (total)) was 845 nM, the concentration at 180 min ([1]; male, Han Wistar, rat, plasma (total), oral, 3 mg/kg, 180 min, individual rats, read-out: Concentration in Rats, Plasma (total)) was 445 nM and the concentration at 480 min ([1]; male, Han Wistar, rat, plasma (total), oral, 3 mg/kg, 480 min, individual rats, read-out: Concentration in Rats, Plasma (total)) was 159 nM. The concentration at 30 min ([1]; male, Han Wistar, rat, plasma (total), oral, 10 mg/kg, 30 min, individual rats, read-out: Concentration in Rats, Plasma (total)) was 8660 nM, the concentration at 60 min ([1]; male, Han Wistar, rat, plasma (total), oral, 10 mg/kg, 60 min, individual rats, read-out: Concentration in Rats, Plasma (total)) was 6650 nM and the concentration at 120 min ([1]; male, Han Wistar, rat, plasma (total), oral, 10 mg/kg, 120 min, individual rats, read-out: Concentration in Rats, Plasma (total)) was 3290 nM. It also gave a concentration at 180 min ([1]; male, Han Wistar, rat, plasma (total), oral, 10 mg/kg, 180 min, individual rats, read-out: Concentration in Rats, Plasma (total)) of 1780 nM, a concentration at 240 min ([1]; male, Han Wistar, rat, plasma (total), oral, 10 mg/kg, 240 min, individual rats, read-out: Concentration in Rats, Plasma (total)) of 872 nM and a concentration at 480 min ([1]; male, Han Wistar, rat, plasma (total), oral, 10 mg/kg, 480 min, individual rats, read-out: Concentration in Rats, Plasma (total)) of 102 nM. It also gave a concentration at 120 min ([1]; male, Han Wistar, rat, plasma (total), oral, 50 mg/kg, rats, 50 mg/kg, 120 min, individual animals, read-out: Concentration in Plasma (total)) of 9260 nM, a concentration at 30 min ([1]; male, Han Wistar, rat, plasma (total), oral, 50 mg/kg, 30 min, individual rats, read-out: Concentration in Rats, Plasma (total)) of 15100 nM and a concentration at 60 min ([1]; male, Han Wistar, rat, plasma (total), oral, 50 mg/kg, 60 min, individual rats, read-out: Concentration in Rats, Plasma (total)) of 10400 nM. It also gave a concentration at 120 min ([1]; male, Han Wistar, rat, plasma (total), oral, 50 mg/kg, 120 min, individual rats, read-out: Concentration in Rats, Plasma (total)) of 9260 nM, a concentration at 30 min ([1]; male, Han Wistar, rat, plasma, oral, 50 mg/kg, rats, 50 mg/kg, 30 min, individual animals, read-out: Concentration in Plasma (total)) of 15100 nM and a concentration at 60 min ([1]; male, Han Wistar, rat, plasma, oral, 50 mg/kg, rats, 50 mg/kg, 60 min, individual animals, read-out: Concentration in Plasma (total)) of 10400 nM. The concentration at 30 min ([1]; male, Han Wistar, rat, prefrontal cortex microdialysate, oral, 3 mg/kg, 30 min, individual rats, read-out: Concentration in Rats, Prefrontal cortex) was 7.04 nM, the concentration at 90 min ([1]; male, Han Wistar, rat, prefrontal cortex microdialysate, oral, 3 mg/kg, 90 min, individual rats) was 102 nM and the concentration at 120 min ([1]; male, Han Wistar, rat, prefrontal cortex microdialysate, oral, 3 mg/kg, 120 min, individual rats, read-out: Concentration in Rats, Prefrontal cortex) was 129 nM. The concentration at 150 min ([1]; male, Han Wistar, rat, prefrontal cortex microdialysate, oral, 3 mg/kg, 150 min, individual rats) was 101 nM, the concentration at 30 min ([1]; male, Han Wistar, rat, prefrontal cortex microdialysate, oral, 10 mg/kg, 30 min, individual rats, read-out: Concentration in Rats, Prefrontal cortex) was 17.5 nM and the concentration at 60 min ([1]; male, Han Wistar, rat, prefrontal cortex microdialysate, oral, 10 mg/kg, 60 min, individual rats, read-out: Concentration in Rats, Prefrontal cortex) was 362 nM. The concentration at 90 min ([1]; male, Han Wistar, rat, prefrontal cortex microdialysate, oral, 10 mg/kg, 90 min, individual rats) was 514 nM, the concentration at 120 min ([1]; male, Han Wistar, rat, prefrontal cortex microdialysate, oral, 10 mg/kg, 120 min, individual rats, read-out: Concentration in Rats, Prefrontal cortex) was 479 nM and the concentration at 150 min ([1]; male, Han Wistar, rat, prefrontal cortex microdialysate, oral, 10 mg/kg, 150 min, individual rats) was 270 nM. For the same molecule, the concentration at 180 min ([1]; male, Han Wistar, rat, prefrontal cortex microdialysate, oral, 10 mg/kg, 180 min, individual rats, read-out: Concentration in Rats, Prefrontal cortex) was 259 nM, the concentration at 120 min ([1]; male, Han Wistar, rat, prefrontal cortex microdialysate, oral, 50 mg/kg, rats, 50 mg/kg, 120 min, individual animals, read-out: Concentration in Prefrontal cortex) was 972 nM and the concentration at 1500 min ([1]; male, Han Wistar, rat, prefrontal cortex microdialysate, oral, 50 mg/kg, rats, 50 mg/kg, 1500 min, individual animals, read-out: Concentration in Prefrontal cortex) was 71.6 nM. For the same molecule, the concentration at 120 min ([1]; male, Han Wistar, rat, prefrontal cortex microdialysate, oral, 50 mg/kg, 120 min, individual rats, read-out: Concentration in Rats, Prefrontal cortex) was 972 nM, the concentration at 1500 min ([1]; male, Han Wistar, rat, prefrontal cortex microdialysate, oral, 50 mg/kg, 1500 min, individual rats, read-out: Concentration in Rats, Prefrontal cortex) was 71.6 nM and the concentration at 480 min ([1]; rats, 50 mg/kg, 30 min, individual animals, 50 mg/kg, read-out: Concentration in Cerebrospinal fluid) was 1290 nM and 1440 nM and 2760 nM and 1580 nM. The concentration at 60 min ([1]; rats, 50 mg/kg, 30 min, individual animals, 50 mg/kg, read-out: Concentration in Plasma (total)) was 15700 nM and 13100 nM and 11800 nM, the concentration at 1500 min ([1]; rats, 50 mg/kg, 30 min, individual animals, 50 mg/kg, read-out: Concentration in Prefrontal cortex) was 30.2 nM and 10.2 nM and 22.2 nM and 39.9 nM and the concentration at 480 min ([1]; rats, 50 mg/kg, 60 min, individual animals, 50 mg/kg, read-out: Concentration in Cerebrospinal fluid) was 648 nM and 1420 nM and 2370 nM and 1210 nM. The concentration at 60 min ([1]; rats, 50 mg/kg, 60 min, individual animals, 50 mg/kg, read-out: Concentration in Plasma (total)) was 11900 nM and 11400 nM and 11800 nM, the concentration at 1500 min ([1]; rats, 50 mg/kg, 60 min, individual animals, 50 mg/kg, read-out: Concentration in Prefrontal cortex) was 883 nM and 396 nM and 691 nM and 1135 nM and the concentration at 1500 min ([1]; rats, 50 mg/kg, 90 min, individual animals, 50 mg/kg, read-out: Concentration in Prefrontal cortex) was 1549 nM and 742 nM and 1277 nM and 1593 nM. The concentration at 480 min ([1]; rats, 50 mg/kg, 120 min, individual animals, 50 mg/kg, read-out: Concentration in Cerebrospinal fluid) was 1780 nM and 1160 nM and 2340 nM and 756 nM, the concentration at 60 min ([1]; rats, 50 mg/kg, 120 min, individual animals, 50 mg/kg, read-out: Concentration in Plasma (total)) was 16400 nM and 8330 nM and 13200 nM and the concentration at 1500 min ([1]; rats, 50 mg/kg, 120 min, individual animals, 50 mg/kg, read-out: Concentration in Prefrontal cortex) was 1089 nM and 1363 nM and 1680 nM. The concentration at 1500 min ([1]; rats, 50 mg/kg, 150 min, individual animals, 50 mg/kg, read-out: Concentration in Prefrontal cortex) was 804 nM and 1293 nM and 1118 nM and 1680 nM, the concentration at 60 min ([1]; rats, 50 mg/kg, 180 min, individual animals, 50 mg/kg, read-out: Concentration in Plasma (total)) was 6200 nM and 14400 nM and 6310 nM and 8540 nM and the concentration at 1500 min ([1]; rats, 50 mg/kg, 180 min, individual animals, 50 mg/kg, read-out: Concentration in Prefrontal cortex) was 761 nM and 1438 nM and 957 nM and 2162 nM. The concentration at 1500 min ([1]; rats, 50 mg/kg, 210 min, individual animals, 50 mg/kg, read-out: Concentration in Prefrontal cortex) was 555 nM and 1724 nM and 852 nM and 1666 nM, the concentration at 480 min ([1]; rats, 50 mg/kg, 240 min, individual animals, 50 mg/kg, read-out: Concentration in Cerebrospinal fluid) was 1730 nM and 963 nM and 1170 nM and 522 nM and the concentration at 60 min ([1]; rats, 50 mg/kg, 240 min, individual animals, 50 mg/kg, read-out: Concentration in Plasma (total)) was 3870 nM and 13700 nM and 7630 nM and 7250 nM. For the same molecule, the concentration at 1500 min ([1]; rats, 50 mg/kg, 240 min, individual animals, 50 mg/kg, read-out: Concentration in Prefrontal cortex) was 463 nM and 1651 nM and 722 nM and 1680 nM, the concentration at 1500 min ([1]; rats, 50 mg/kg, 270 min, individual animals, 50 mg/kg, read-out: Concentration in Prefrontal cortex) was 359 nM and 1856 nM and 877 nM and 1281 nM and the concentration at 60 min ([1]; rats, 50 mg/kg, 300 min, individual animals, 50 mg/kg, read-out: Concentration in Plasma (total)) was 4840 nM and 9390 nM and 5350 nM and 4540 nM. For the same molecule, the concentration at 60 min ([1]; rats, 50 mg/kg, 360 min, individual animals, 50 mg/kg, read-out: Concentration in Plasma (total)) was 5830 nM and 7730 nM and 5370 nM and 2620 nM, the concentration at 480 min ([1]; rats, 50 mg/kg, 480 min, individual animals, 50 mg/kg, read-out: Concentration in Cerebrospinal fluid) was 435 nM and 486 nM and 321 nM and the concentration at 60 min ([1]; rats, 50 mg/kg, 480 min, individual animals, 50 mg/kg, read-out: Concentration in Plasma (total)) was 134 nM and 4450 nM and 4860 nM and 4260 nM. The concentration at 1500 min ([1]; rats, 50 mg/kg, 1500 min, individual animals, 50 mg/kg, read-out: Concentration in Prefrontal cortex) was 123 nM, the “duration of complete inhibition of phospho-RET and phospho-ERK in tumors” value [2] was “at least 8 h” and the Kp (in vivo) was 1.8. For the same molecule, the Kp uu (in vivo) was 1.3, the “% Inhibiton PAK6” value [3] was 7.4% and the “% Inhibiton PAK5” value [4] was 10.8%.
